According to US20230027066A1 (Urovant Sciences GmbH, priority 2019, published 2023):

Key:
[1] = Phase 3 study (75 mg), heart rate and blood pressure changes; format: in vivo, human
Text: Study assessments of safety included adverse events, physical examinations, vital signs (and weight), and clinical laboratory tests
Categorical changes are based on 3 consecutive post-baseline visits and patients are counted in all applicable categories (e.g., if a patient has a 12 unit increase then that patient is counted in both ≥5 and ≥10 unit columns).
Blood Pressure assessments are taken in triplicate and averaged at each visit.

[2] = tested on: men and women with overactive bladder; assay: Phase 3 study (75 mg), patient-reported outcomes (OAB-q LF, PGI); format: in vivo, human; design: OAB-q sleep score, improvement greater than placebo / HRQL Total Score, improvement greater than placebo / OAB-q HRQL Total Score, Active - Placebo LS Means Difference: scale not given here
Text: Patients completed paper questionnaires at the site at the start of each required study visit to assess patient-perceived symptom relief, symptom bother, and health-related quality of life at the study visits. […] These included the following questionnaires:
1. Global Impression Items include Patient Global Impression of Severity (PGI-Severity), Patient Global Impression of Control (PGI-Control), Patient Global Impression of Frequency (PGI-Frequency), Patient Global Impression of Leakage (PGI-Leakage), and Patient Global Impression of Change (PGI-Change).
2. Overactive Bladder Questionnaire (OAB-q long form [OAB-q LF], 1-week recall) is a 33-item patient-administered, disease-specific questionnaire that includes a Health-Related QoL (HRQL) scale (25 items) and a Symptom Bother Scale (8 items). The HRQL is a multidomain concept that represents the patient's general perception of the effect of illness and treatment on physical, psychological, and social aspects of life. […] In the present study, the HRQL scale is divided into 4 subscales: Coping, Concern/Worry, Sleep, and Social Interaction. The Coping subscale (also referred to as the coping domain score) was a secondary endpoint, with items scored from 1 (none of the time) to 6 (all the time), with higher scores indicating better QoL. The HRQL total score is calculated by summating the individual HRQL subscale scores. The Symptom Bother Scale items are scored from 1 (not at all) to 6 (a very great deal), with higher Symptom Bother scores indicating greater symptom severity. The instrument was developed and validated in both continent and incontinent OAB patients, including both men and women.
With the exception of the symptom bother score, a responder was defined as having a change from baseline ≥10. For symptom bother score, a responder was defined as having a change from baseline […]. A higher proportion of patients represented a favorable response.

[3] = 3 consecutive post-baseline visits
[4] = 50% Total Incontinence Responders, Week 12
[5] = Week 12, responder = change from baseline ≥10
[6] = vibegron 75 mg/day, 12-week treatment

For O=C(Nc1ccc(C[C@@H]2CC[C@H]([C@H](O)c3ccccc3)N2)cc1)[C@@H]1CCc2nccc(=O)n21 [Vibegron, (6S)-N-[4-[[(2S,5R)−5-[(R)-hydroxy(phenyl)methyl]pyrrolidin−2-yl]methyl]phenyl]−4-oxo−7,8-dihydro−6H-pyrrolo[1,2-a]pyrimidine−6-carboxamide], the “Diastolic BP categorical change from baseline ≥5 mm Hg, patients” value [1, 3] was 7.0%, the “Diastolic BP categorical change from baseline ≥10 mm Hg, patients” value [1, 3] was 1.3% and the “Diastolic BP categorical change from baseline ≥15 mm Hg, patients” value [1, 3] was 0.2%. For the same compound, the “Heart Rate categorical change from baseline ≥5 bpm, patients” value [1, 3] was 8.6%, the “Heart Rate categorical change from baseline ≥10 bpm, patients” value [1, 3] was 1.8% and the “Heart Rate categorical change from baseline ≥15 bpm, patients” value [1, 3] was 0.4%. For the same compound, the “Systolic BP categorical change from baseline ≥5 mm Hg, patients” value [1, 3] was 11.2%, the “Systolic BP categorical change from baseline ≥10 mm Hg, patients” value [1, 3] was 4.2% and the “Systolic BP categorical change from baseline ≥15 mm Hg, patients” value [1, 3] was 1.3%. The “Diastolic BP, 12-week change (95% CI)” value ([1]; Hypertensive at baseline) was −3.2 (−6.3, −0.1) mm Hg, the “Heart Rate, 12-week change” value ([1]; Hypertensive at baseline) was “+2.2 beats/minute” and the “Systolic BP, 12-week change (95% CI)” value ([1]; Hypertensive at baseline) was −9.1 (−13.8, −4.4) mm Hg. For the same compound, the “Diastolic BP, 12-week change (95% CI)” value ([1]; Normotensive at baseline) was “+0.5 (−0.2, +1.1) mm Hg”, the “Heart Rate, 12-week change” value ([1]; Normotensive at baseline) was “+0.4 beats/minute” and the “Systolic BP, 12-week change (95% CI)” value ([1]; Normotensive at baseline) was “+1.0(0, +2.0) mm Hg”. For the same compound, the “Diastolic BP, Mean Change from Baseline at Week 12 (SD)” value ([1]; Week 12, all patients) was 0.2 (7.43) mm Hg, the “Heart Rate, Mean Change from Baseline at Week 12” value ([1]; Week 12, all patients) was 0.5 beats/minute and the “Systolic BP, Mean Change from Baseline at Week 12” value ([1]; Week 12, all patients) was 0.2 mm Hg. For the same compound, the “OAB-q Coping Subscore, Change from baseline at week 12, LS Means (SE)” value [2, 4] was 20.3 (1.35), the “OAB-q Coping Subscore, Mean” value [2, 4] was 83.08 (18.924) and the “OAB-q Symptom Bother Subscore, Change from baseline at week 12, LS Means” value [2, 4] was −25.5. The “OAB-q Symptom Bother Subscore, Mean” value [2, 4] was 21.18, the “Change from Baseline in PGI-Control, LS Mean” value ([2]; 75% UUI Responders, Week 4) was −0.8 (0.06) and the “PGI-Control, Mean (SD)” value ([2]; 75% UUI Responders, Week 4) was 2.42 (0.887). The “Change from Baseline in PGI-Control, LS Mean” value ([2]; 75% UUI Responders, Week 8) was −1.0 (0.06), the “PGI-Control, Mean (SD)” value ([2]; 75% UUI Responders, Week 8) was 2.25 (0.863) and the “Change from Baseline in PGI-Control, LS Mean” value ([2]; 75% UUI Responders, Week 12) was −1.2 (0.06). For the same compound, the “OAB-q Coping Subscore, Change from baseline at week 12, LS Means (SE)” value ([2]; 75% UUI Responders, Week 12) was 19.7 (1.48), the “OAB-q Coping Subscore, Mean (SD)” value ([2]; 75% UUI Responders, Week 12) was 83.99 (19.232) and the “OAB-q Symptom Bother Subscore, Change from Baseline at Week 12, LS Means (SE)” value ([2]; 75% UUI Responders, Week 12) was −25.8 (1.38). The “OAB-q Symptom Bother Subscore, Mean (SD)” value ([2]; 75% UUI Responders, Week 12) was 20.13 (15.862), the “PGI-Control, Mean (SD)” value ([2]; 75% UUI Responders, Week 12) was 2.02 (0.784) and the “OAB-q Concern Subscore, Week 12 Mean (SD)” value ([2]; Week 12) was 80.58 (21.867). For the same compound, the “OAB-q Concern responders, Difference from Placebo” value ([2]; Week 12) was 5.9, the “OAB-q Concern, Active - Placebo LS Means Difference” value ([2]; Week 12) was 5.0 and the “OAB-q Concern, change from baseline LS Means (SE)” value ([2]; Week 12) was 15.3 (1.24). The “OAB-q Coping Score, Active - Placebo LS Means Difference” value ([2]; Week 12) was 3.6, the “OAB-q Coping Score, change from baseline LS Means (SE)” value ([2]; Week 12) was 16.5 (1.31) and the “OAB-q Coping Sub score, Week 12 Mean (SD)” value ([2]; Week 12) was 77.26 (23.242). The “OAB-q Coping responders, Difference from Placebo” value ([2]; Week 12) was 7.5, the “OAB-q HRQL Total Score, Active - Placebo LS Means Difference” value ([2]; Week 12) was 3.8 and the “OAB-q HRQL Total Score, change from baseline LS Means (SE)” value ([2]; Week 12) was 14.6 (1.12). For the same compound, the “OAB-q Sleep Subscore, Week 12 Mean (SD)” value ([2]; Week 12) was 75.59 (23.883), the “OAB-q Sleep responders, Difference from Placebo” value ([2]; Week 12) was 2.1 and the “OAB-q Sleep, Active - Placebo LS Means Difference” value ([2]; Week 12) was 4.5. The “OAB-q Sleep, change from baseline LS Means (SE)” value ([2]; Week 12) was 14.9 (1.34), the “OAB-q Social Interaction Subscore, Week 12 Mean (SD)” value ([2]; Week 12) was 88.57 (18.011) and the “OAB-q Social Interaction responders, Difference from Placebo” value ([2]; Week 12) was 5.4. The “OAB-q Social Interaction, Active - Placebo LS Means Difference” value ([2]; Week 12) was 1.5, the “OAB-q Social Interaction, change from baseline LS Means (SE)” value ([2]; Week 12) was 10.2 (0.97) and the “OAB-q Symptom Bother Subscore, Week 12 Mean (SD)” value ([2]; Week 12) was 27.78 (19.816). For the same compound, the “OAB-q Symptom Bother responders, Difference from Placebo” value ([2]; Week 12) was 11.8, the “OAB-q Symptom Bother, Active - Placebo LS Means Difference” value ([2]; Week 12) was −6.9 and the “OAB-q Symptom Bother, change from baseline LS Means (SE)” value ([2]; Week 12) was −19.6 (1.24). For the same compound, the “OAB-q Total HRQL Score, Week 12 Mean (SD)” value ([2]; Week 12) was 80.12 (20.175), the “OAB-q Total HRQL responders, Difference from Placebo” value ([2]; Week 12) was 5.5 and the “OAB-q Symptom Bother responders, %” value ([2]; Week 12, responder = change from baseline ≤−10) was “(70.1) %”. The “OAB-q Concern responders, %” value [2, 5] was “(55.7) %”, the “OAB-q Coping responders, %” value [2, 5] was “(61.9) %” and the “OAB-q Sleep responders, %” value [2, 5] was “(53.9) %”. For the same compound, the “OAB-q Total HRQL responders, %” value [2, 5] was “(54.1) %”, the “HRQL Total Score, improvement greater than placebo” value [2, 6] was 3.8 and the “OAB-q coping domain score, improvement greater than placebo” value [2, 6] was 3.6. For the same compound, the “OAB-q sleep score, improvement greater than placebo” value [2, 6] was 4.5 and the “OAB-q symptom bother score, decrease more than placebo” value [2, 6] was 6.9.
